Assay results from ChEMBL document CHEMBL1131678, “Arachidonic acid amide inhibitors of gap junction cell-cell communication” (1999).

How the values were obtained:
Rattus norvegicus [1] = species: Rattus norvegicus; assay: Inhibition of rat glial cell gap junction at the concentration of 50 uM; assay type: functional
Rattus norvegicus [2] = species: Rattus norvegicus; assay: Tested for inhibition of rat glial cell gap junction at the concentration of 20 uM; assay type: functional

| Structure (SMILES) | inhibition at 50 µM (Rattus norvegicus [1]) [%] | inhibition at 20 µM (Rattus norvegicus [2]) [%] |
| --- | --- | --- |
| CCCCC/C=C\C/C=C\C/C=C\C/C=C\CCCC(=O)N(C)C(C)C | 100 | – |
| CCCCCCCC/C=C\CCCCCCCC(=O)N(C)C | 100 | 70 |
| CCCCCCCC/C=C\CCCCCCCC(=O)N(CC)CC | 100 | 15 |
| CCCCCCCC/C=C\CCCCCCCC(=O)NCC | 100 | 50 |
| CCCCC/C=C\C/C=C\C/C=C\C/C=C\CCCC(=O)NCCCC | 10 | – |
| CCCCC/C=C\C/C=C\C/C=C\C/C=C\CCCC(=O)N(C)C | 100 | – |
| CCCCCCCC/C=C\CCCCCCCC(=O)NC(C)C | 100 | – |
| CCCCCCCC/C=C\CCCCCCCC(=O)N1CCCC1 | 100 | 0 |
| CCCCC/C=C\C/C=C\C/C=C\C/C=C\CCCC(=O)N(C)OC | 100 | – |
| CCCCCCCC/C=C\CCCCCCCC(=O)NC1CC1 | 100 | – |
| C=CCNC(=O)CCCCCCC/C=C\CCCCCCCC | 100 | – |
| CCCCCCCC/C=C\CCCCCCCC(=O)N(CCO)CCO | 8 | 0 |
| CCCCC/C=C\C/C=C\C/C=C\C/C=C\CCCC(=O)NC | 100 | – |
| CCCCCCCC/C=C\CCCCCCCC(=O)N(C)C(C)C | 100 | – |
| CCCCC/C=C\C/C=C\C/C=C\C/C=C\CCCC(=O)N(CC)CC | 100 | – |
| CCCCC/C=C\C/C=C\C/C=C\C/C=C\CCCC(=O)NCC | 100 | – |
| CCCCCCCC/C=C\CCCCCCCC(=O)NC | 100 | 70 |
| CCCCC/C=C\C/C=C\C/C=C\C/C=C\CCCC(=O)N(CCO)CCO | 0 | 0 |
| CCCCCCCC/C=C\CCCCCCCC(=O)NCCCO | 100 | – |

| Structure (SMILES) | inhibition at 50 µM (Rattus norvegicus [1]) [%] | inhibition at 20 µM (Rattus norvegicus [2]) [%] |
| --- | --- | --- |
| CCCCCCCC/C=C\CCCCCCCC(=O)NCCC | 90 | 50 |
| CCCCC/C=C\C/C=C\C/C=C\C/C=C\CCCC(=O)NC(C)C | 100 | – |
| CCCCCCCC/C=C\CCCCCCCC(=O)NCCCc1ccccc1 | 0 | – |
| C=CCNC(=O)CCC/C=C\C/C=C\C/C=C\C/C=C\CCCCC | 90 | – |
| CCCCCCCC/C=C\CCCCCCCC(=O)NO | 100 | – |
| CCCCCCCC/C=C\CCCCCCCC(=O)NCCCC | 100 | – |
| CCCCC/C=C\C/C=C\C/C=C\C/C=C\CCCC(=O)N(CCC)CCC | 10 | – |
| CCCCC/C=C\C/C=C\C/C=C\C/C=C\CCCC(=O)NC1CC1 | 100 | – |
| CCCCCCCC/C=C\CCCCCCCC(=O)N(C)OC | 100 | 100 |
| CCCCC/C=C\C/C=C\C/C=C\C/C=C\CCCC(=O)N1CCCC1 | 100 | – |
| CCCCC/C=C\C/C=C\C/C=C\C/C=C\CCCC(=O)NCCC | 100 | – |
| CCCCC/C=C\C/C=C\C/C=C\C/C=C\CCCC(=O)NCCO [ANANDAMIDE] | 100 | 35 |
| CCCCC/C=C\C/C=C\C/C=C\C/C=C\CCCC(N)=O [ARACHIDONAMIDE] | 100 | 90 |
| CCCCC/C=C\C/C=C\C/C=C\C/C=C\CCCC(=O)O [ARACHIDONIC ACID] | 0 | 0 |
| CCCCCCCC/C=C\CCCCCCCC(N)=O [OLEAMIDE] | 100 | 100 |
| CCCCCCCC/C=C\CCCCCCCC(=O)Nc1ccccc1 [OLEIC ACID ANILIDE] | 0 | – |
| CCCCCCCC/C=C\CCCCCCCC(=O)O [OLEIC ACID] | 0 | 0 |
| CCCCCCCC/C=C\CCCCCCCC(=O)NCCO [OLEOYLETHANOLAMIDE] | 100 | 0 |
